Test results as given in patent publication US20250134917A1, “COMPOSITIONS AND METHODS OF REGENERATING HEART TISSUES WITH AMINOGLYCOSIDES” (The Board of Regents of The University of Texas System, priority 2022, published 2025).

Key:
[1] = system: Meis1 transcriptional activity; experiment: Meis1 luciferase transcriptional activity assay in NRVMs; type: cell-based, rat; settings: 10-500 nM, compared to control (PBS for neomycin, paromomycin; DMSO for rutin, hesperidin)
From the text: (§1) S1: HOXB13 DNA binding domain, S2: Meis1 DNA binding domain, and S3: Interacting interface between Meis1 and HOXB13 (PDB ID: 5EGO). […] Data are mean±s.e.m.; unpaired two-sided t-test. * P<0.05, ** P<0.01, *** P<0.001.

[2] = system: HOXB13 transcriptional activity; experiment: HOXB13 luciferase transcriptional activity assay in NRVMs; type: cell-based, rat; settings: 10-500 nM, compared to control (PBS for neomycin, paromomycin; DMSO for rutin, hesperidin)
From the text: as §1

[3] = system: cardiomyocytes of neonatal heart; experiment: Cardiomyocyte proliferation in neonatal CD-1 mice; type: in vivo, mouse; settings: 300 mg/kg, i.p from p1 till p14, compared with controls
Procedure: Paromomycin-neomycin was administered to neonatal CD-1 mice at 300 mg/kg, i.p from p1 till p14. Hearts were collected for histological analysis (FIG. 4A).
Immunofluorescence staining. Heart cryosections were equilibrated with antigen retrieval buffer with 1 mM EDTA or epitope retrieval buffer (IHC World). Samples were permeabilized and blocked with 0.3% Triton X-100 and 10% serum from the host animal of secondary antibodies in PBS for 20 minutes at room temperature. Then, samples were incubated overnight at 4° C. with the primary antibodies. After three washes with PBS, samples were incubated for 1 hour at room temperature with corresponding fluorescence secondary antibodies conjugated to Alexa Fluor 488 or 555 (Invitrogen) at 1:400. The slides were mounted in Vectashield Antifade Mounting Medium (Vector Laboratories). Slides were viewed under Nikon fluorescence or Zeiss LSM 510 confocal microscopes. Primary antibodies used: phospho histone H3 Ser10 (EMD Millipore, 06-570; 1:100), aurora B kinase (Sigma, A5102; 1:25) to analyse cell cycle re-entry; troponin T, cardiac isoform Ab-1, clone 13-11 (Thermo Scientific, MS-295-P1; 1:200), sarcomeric α-actinin (Abcam, ab68167; 1:200) to identify cardiomyocytes. DAPI or Hoechst was used for nuclear staining. Images were obtained using a Nikon Eclipse Ni or Nikon A1 laser scanning confocal microscopes.

[4] = system: mouse adult heart after myocardial infarction (MI); experiment: Cardiac repair after myocardial infarction (LAD ligation) in adult mice; type: in vivo
Procedure: In another exemplary method, the ability of the aminoglycosides on cardiac repair and heart regeneration was assessed in the mouse adult heart after following myocardial infarction (MI). MI was induced in adult mice by permanent ligation of the proximal left anterior descending coronary artery. This was followed by examining the expression of cell cycle inhibitors two weeks after MI (one week after drug(s) injection) by western blot analysis. […] Meanwhile, MI was induced to monitor the pharmacodynamics of the administered drug(s) to improve cardiac function and promote heart regeneration for 8-weeks (FIG. 5A). One week after injury, paromomycin and paromomycin-neomycin combo (200 mg/kg/day, i.p.) was administered while assessment of left ventricular ejection fraction (LVEF) by echocardiography was performed 1-week post-surgery, 1 week after drug(s) administration and every 2 weeks thereafter until 8 weeks post-surgery. Murine model of MI. Induction of adult anterior wall MI was performed as similar to the methods described in Nguyen et al., Nature (2020) 582, 271-276, the disclosure of which is incorporated herein in its entirety. In brief, three-month-old mice were subjected to MI by ligation of the proximal aspect of the LAD coronary artery. Mice were anaesthetized in an airtight chamber using 4% isoflurane, endotracheally intubated, and ventilated using a volume-control ventilator with 100% O2, supplemented with 2% vaporized isoflurane (Harvard Apparatus). Following lateral thoracotomy and pericardiectomy, the LAD coronary artery was identified along the anterior wall of the LV. Prolene sutures (6-0 non-absorbable) was used to ligate the LAD. Proper occlusion of the LAD artery was noted by three criteria: immediate blanching of the LV anterior wall myocardium below the ligature, echocardiographic assessment 7 days post-surgery showing an ejection fraction in the range of 45-65%, and histological analysis. Vicryl sutures (6-0 absorbable) were used to close the thoracic cavity. Drugs administrated one week after MI. Mice were subjected to echocardiography at serial time points and then euthanized at 3 months after ligation. Hearts were collected and processed for histology and immunohistochemistry. Fibrotic scar size was measured using MIQuant similar to the method described in Nascimento et al., PLOS One (2011) 6, e25045, the disclosure of which is incorporated herein in its entirety. Transthoracic echocardiography. Assessment of in vivo heart function on conscious, non-sedated mice was performed using a Vevo2100 micro-ultrasound system, M[…] probe (VisualSonics) at baseline, 1 week after injury, 1 week after drug administration, and 4, 8, 12 and 16 weeks after occlusion. Echocardiographic M-mode images were obtained from a parasternal short-axis view at the level of the papillary muscles. Left ventricular internal diameters at end diastole (LVIDd) and end systole (LVIDs) were measured from M-mode recordings. Six representative contraction cycles were selected for analysis, and average indexes (LVIDd, LVIDs and fractional shortening) were calculated for each mouse. All echocardiography measurements were performed in a blinded manner. Histology. Hearts were collected and fixed in 4% paraformaldehyde in PBS overnight at 4° C. and then processed for either paraffin or cryo embedding. […] Protein concentration was quantified using Pierce BCA protein assay kit (Pierce Biotechnology), with three biological replicates. […]

[5] = system: cardiomyocytes in the adult heart; experiment: Cardiomyocyte proliferation in adult mice with no injury stimuli; type: in vivo, mouse
Procedure: In another exemplary method, cardiomyocyte proliferation in mice was assessed in the presence of paromomycin and paromomycin-neomycin. Based on the data resulting from the in vitro screening coupled and luciferase transcription activity assays detailed in the exemplary methods herein, paromomycin was initially selected to study its capacity to prolong cardiomyocytes proliferation in adult mice with no injury stimuli. The effect of paromomycin (Paro) (200 mg/kg/day, i.p.) and paromomycin-neomycin (Paro/Neo) combo (300 mg/kg/day, i.p.) was assessed after 2 weeks of injection on cell proliferation indices, cytokinesis, cardiomyocyte cell size, isolated cardiac cell count, and nucleation on the isolated cardiomyocytes in the adult heart (FIG. 3A, FIG. 4F). […] Animals. Mice were housed in a 12:12 h light: dark cycle in a temperature-controlled room with free access to water and food. Littermate controls were used whenever possible. Both male and female mice were used on age-matched and gender-matched mice. No statistical methods were used to predetermine sample size. All surgeries and echocardiographic studies were carried out blinded to the genotype of the mice during the experiments and outcome assessments. CD1 mice (Charles River Laboratories) were used for drug-tested studies. Drug administration. Tamoxifen (Sigma) was prepared by dissolving in sesame oil (Sigma) to a concentration of 10 mg ml^-1. For the MADM clonal analysis, 14 consecutive injections of tamoxifen were administered, and mice were euthanized 2 weeks after the last injection. For injection of Paromomycin and Neomycin, mice were administered twice daily. Mice were euthanized at the same time of day to limit circadian variability. Immunofluorescence staining. Heart cryosections were equilibrated with antigen retrieval buffer with 1 mM EDTA or epitope retrieval buffer (IHC World). Samples were permeabilized and blocked with 0.3% Triton X-100 and 10% serum from the host animal of secondary antibodies in PBS for 20 minutes at room temperature. Then, samples were incubated overnight at 4° C. with the primary antibodies. After three washes with PBS, samples were incubated for 1 hour at room temperature with corresponding fluorescence secondary antibodies conjugated to Alexa Fluor 488 or 555 (Invitrogen) at 1:400. The slides were mounted in Vectashield Antifade Mounting Medium (Vector Laboratories). Slides were viewed under Nikon fluorescence or Zeiss LSM 510 confocal microscopes. Primary antibodies used: phospho histone […] (EMD Millipore, 06-570; 1:100), aurora B kinase (Sigma, A5102; 1:25) to analyse cell cycle re-entry; troponin T, cardiac isoform Ab-1, clone 13-11 (Thermo Scientific, MS-295-P1; 1:200), sarcomeric α-actinin (Abcam, ab68167; 1:200) to identify cardiomyocytes. DAPI or Hoechst was used for nuclear staining. Images were obtained using a Nikon Eclipse Ni or Nikon A1 laser scanning confocal microscopes. WGA staining and cardiomyocyte size quantification. WGA staining and quantification was performed as previously described. In brief, the slides were incubated with WGA conjugated to Alexa Fluor 488 ([…], Life Technologies) for 1 hour at room temperature following washing with PBS. To quantify the cross-sectional cell size, three to five independent hearts per group with three different views and positions, each from left and right ventricles, and septum were captured at 40× magnification. ImageJ was used to quantify the size of cardiomyocytes that were round and contained a nucleus. At least 500 cells per sample were quantified. Cardiomyocyte isolation. Adult hearts were freshly collected and fixed in 4% paraformaldehyde at 4° C. overnight. The hearts were minced to smaller pieces and subsequently incubated with collagenase D (2.4 mg ml^-1, Roche) and B (1.8 mg ml^-1, Roche) for 12 h at 37° C. using an end-over-end shaker. The supernatants were collected via 160-μm nylon mesh filter, and the procedure was repeated until no more cardiomyocytes were dissociated from the tissue. […]

HOXB13 = biological target: T1, HOXB13 (Mus musculus, UniProt P70321); experiment: Thermal shift assay on purified HOXB13 DBD; type: binding
T1 construct: made in house; host or cells: E. coli Rosetta (DE3) pLysS
Procedure: In another exemplary method, thermal shift analysis of aminoglycosides towards Meis1 and HOXB13 was performed. Initially, […] binding domains (DBDs) of Meis1 and HOXB13 were cloned, expressed, and purified to conduct the thermal shift assay (FIGS. 2A-2B). […] Protein Expression and Purification. mMeis1 and mHoxb13 were subcloned into pETDuet vector with noncleavable N-terminal 6×His tag and transformed into Rosetta (DE3) pLysS cells (Novagen). Target protein were expressed in cultures grown in autoinduction media at 18° C. overnight. The culture was harvested and sonicated in lysis buffer (20 mM Tris [pH=8.0], 1 M NaCl, 0.5 mM DTT, and supplemented with protease inhibitors). […] The eluate was concentrated and purified by gel filtration chromatography. The peak fractions were collected and concentrated to about . . . 0 mg/mL for crystallization screening.

[6] = two weeks after MI (one week after drug(s) injection)
[7] = adult CD-1 mice, i.p., 2 weeks, paromomycin 200 mg/kg, paromomycin-neomycin 300 mg/kg, Anti-Cnx43/DAPI, compared with controls
[8] = adult mice, i.p., 2 weeks, Paro 200 mg/kg/day, Paro/Neo combo 300 mg/kg/day, compared to control
[9] = adult mice, i.p., 2 weeks, Paro 200 mg/kg/day, Paro/Neo combo 300 mg/kg/day, compared to control-treated mice

T1 sequence (P70321 218-277 limits assumed): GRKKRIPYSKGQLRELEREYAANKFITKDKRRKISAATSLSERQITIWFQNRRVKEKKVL

Compound | luciferase transcriptional activity for Meis1 [1] | luciferase transcriptional activity for HOXB13 [2] | cardiomyocyte cytokinesis marker (AurkB and anti-cTnT co-immunostaining) [3] | cardiomyocyte mitosis marker (anti-pH3 and anti-cTnT co-immunostaining) [3] | left ventricular ejection fraction (LVEF) by echocardiography ([4]; 8 weeks post-surgery, drug i.p. from one week after injury, compared to control-treated mice) | wet to dry lung ratio ([4]; MI mouse model, Paromomycin 200 mg/kg, i.p., Paromomycin-Neomycin 300 mg/kg, 8 weeks, compared to controls) | fibrotic scar (size) ([4]; histological analysis, 8 weeks post-MI, compared to control-treated hearts) | p15/16 proteins (cell cycle inhibitor), western blot [4, 6] | p21 protein (cell cycle inhibitor), western blot [4, 6] | RFP+ and GFP+ single-labelled daughter cardiomyocytes ([5]; Mosaic Analysis with Double Markers (MADM) mice, lineage tracing, compared to control-treated mice) | bi- and multi-nucleation of isolated cardiomyocytes [5, 7] | mono-nucleation of isolated cardiomyocytes [5, 7] | cardiomyocytes cell size via wheat germ agglutinin (WGA) staining [5, 8] | cardiomyocytes undergoing cytokinesis via Aurkb+ staining [5, 8] | number of cardiomyocytes following dissociation of the heart by collagenase digestion ([5]; adult mice, i.p., 2 weeks, Paro 200 mg/kg/day, Paro/Neo combo 300 mg/kg/day, compared to control-treated hearts) | heart weight (HW)/body weight (BW) ratio [5, 9] | pH3+ cardiomyocytes (mitosis marker) [5, 9] | change in the melting temperature of HOXB13 (HOXB13)
COc1ccc([C@@H]2CC(=O)c3c(O)cc(O[C@@H]4O[C@H](CO[C@@H]5O[C@@H](C)[C@H](O)[C@@H](O)[C@H]5O)[C@@H](O)[C@H](O)[C@H]4O)cc3O2)cc1O [Hesperidin, hesperidin] | poor inhibitory profile | poor inhibitory profile |  |  |  |  |  |  |  |  |  |  |  |  |  |  |  | 
NC[C@@H]1O[C@H](O[C@H]2[C@@H](O)[C@H](O[C@@H]3[C@@H](O)[C@H](N)C[C@H](N)[C@H]3O[C@H]3O[C@H](CO)[C@@H](O)[C@H](O)[C@H]3N)O[C@@H]2CO)[C@H](N)[C@@H](O)[C@@H]1O [Paromomycin, paromomycin] | significant downregulation | significant downregulation | significant increase | significant increase | maintain the LVEF | significant decrease | trending decline | decrease | decrease | significant increased | significant decrease | significant increase | significant reduction | significant increase | significantly higher number | no significant difference | significant increase | 
neomycin | significant downregulation | significant downregulation |  |  |  |  |  |  |  |  |  |  |  |  |  |  |  | noticeable change
